# Assay results: patent US8318792B2, “Therapeutic agent for amyotrophic lateral sclerosis” (Nippon Medical School Foundation, priority 2006, dated 2012)
# Key:
# [1] = tested on: G1H-G93A transgenic mice; test: Histopathological study: number of spinal cord anterior horn cells; type: in vivo, mouse; conditions: end stage; for difference to placebo group in number of spinal cord anterior horn cells (cervical, thoracic or lumbar segment): P>0.05, Mann-Whitney's U test; for number of spinal cord anterior horn cells in the cervical segment / number of spinal cord anterior horn cells in the lumbar segment / number of spinal cord anterior horn cells in the thoracic segment: per five HE sections, average±SD
# Experimental: The mouse supplied to the experiment is anesthetized by intraperitoneal injection of pentobarbital sodium in an amount of 1 mL per kg of the mouse body weight. After confirming that the mouse is completely under anesthesia, laparotomy and thoracotomy are performed, and blood is completely removed from the visceral organs of the whole body by perfusion of physiological saline at 37° C. via the left ventricle and aorta. The complete removal of blood from the visceral organs of the whole body is carried out by confirming complete removal of the blood of the aorta in the thoracic part and abdominal part, mesenteric arteries, liver, kidneys, and small arteries on the surfaces of the stomach, small intestine and large intestine under direct visual inspection. Subsequently, perfusion of 50 mL of physiological saline at 37° C. is performed. Immediately thereafter, the perfusion is performed with a fixative (4% paraformaldehyde supplemented with 0.1 M cacodylate buffer, pH 7.4). The spinal cord is removed and re-fixed with the same fixative for 18 hours. After the fixation of spinal cord tissue, each spinal cord segments is cut out to examine the spinal cord tissue. For the detailed analyses of spinal cord tissues, two segments of the cervical spinal cord (upper and lower cervical segments), three segments of the thoracic spinal cord (upper, middle, and lower thoracic segments), and two segments of lumbar spinal cord (upper and lower lumbar segments) were cut out to provide seven segments in total. Each spinal cord segments are respectively embedded in paraffin to produce paraffin blocks, and then cut into paraffin sections having a thickness of 5 μm using a microtome. The paraffin sections are subjected to hematoxylin and eosin (HE) staining.
# For a quantitative analysis, serial 25 paraffin sections having a thickness of 5 μm were produced in series from the respective segment paraffin blocks of the spinal cord, and the 1st section, 7th section, 13th section, 19th section and 25th section were selected and subjected to HE staining. Specifically, paraffin sections were selected such that one paraffin section was taken at a […], and 5 HE preparations were produced from a single spinal cord segments. Therefore, 10 HE preparations from two areas for the entire cervical spinal cord, 15 HE preparations from three areas for the entire thoracic spinal cord, and 10 HE preparations from two areas for the entire lumbar spinal cord, were produced.
# In order to calculate the number of motor neurons in the anterior horn, all of the HE stained sections were observed under a light microscope (BX41: Olympus Corp., Tokyo, Japan) equipped with a 3CCD digital color camera system for the microscope (FX380: Olympus Corp., Tokyo, Japan). Subsequently, photographs of the anterior horn region (corresponding to VII, VIII and IX Rexed areas) in the HE stained sections of the respective myelomere tissues of the spinal cord were taken, and the images were analyzed using an image analysis-filing software (FLVFS-LS Ver. 1.12: Olympus Corp., Tokyo, Japan). In regard to the definition of the motor neuron in the anterior horn of spinal cord (spinal cord anterior horn cells), cells in the HE stained sections, which have a nucleus carrying a definite nucleolus and contain a cell body having a diameter of 25 μm or more, were selected as the spinal cord anterior horn cells (Klivenyi P, et al., Nature Med 1999; 5:347-351, Kong J & Xu Z, J Neurosci 1998; 18:3241-3250, and Stephens B, et al., Neuropathol Appl Neurobiol 2001; 27:352-361). Based on this definition, the number of spinal cord anterior horn cells was counted for each of the HE stained sections. The respective numbers of spinal cord anterior horn cells in the cervical spinal cord, thoracic spinal cord and lumbar spinal cord of one mouse was calculated from the total number of spinal cord anterior horn cells in five HE stained sections. […]
# [2] = tested on: G1H-G93A transgenic mice; test: Exercise tolerance test: rotarod test; type: in vivo, mouse; conditions: for Rotarod test score: 5 mg/kg oral daily from 80th day (before onset), score 0-3; for effect in rotarod test as compared to placebo group: 105th, 110th and 115th day, 5 mg/kg oral daily from 80th day after birth, Mann-Whitney's U test
# Experimental: The following five kinds of exercise tolerance tests were conducted every fifth day from the 70th day after birth to evaluate the ability to exercise in the respective exercise tolerance tests. That is, the days for the exercise tolerance tests were every fifth days, such as the 70th day, 75th day, 80th day, 85th day and so on, after birth. The exercise tolerance tests were conducted throughout the survival period, and the post-mortem evaluation was based on the definitions of the following five kinds of exercise tolerance tests.
# The apparatus used in the Rotarod test (Rota Rod Treadmill type 7600, Ugo Basile Co., Milano, Italy) is a rotating axle having a diameter of 3.6 cm, and this rotating axle is set up so as to have 16 revolution per minute (one rotation: 3.75 seconds). The period for which a mouse can remain on a rotating axle without falling is measured. The evaluation of the rotarod test for the mouse was performed based on the following criteria: Score 0=The time exceeds 60 seconds; Score 1=The time is more than 30 seconds and 60 seconds or less; Score 2=The time is more than 4 seconds and 30 seconds or less; and Score 3=The time is 4 seconds or less. The post-mortem evaluation of the rotarod test is defined as score 3.
# [3] = 5 mg/kg oral daily from 80th day after birth (before onset)
# [4] = 5 mg/kg oral daily from the day of onset (after onset)
# [5] = from the 125th day to 140th day after birth
SMILES,"difference to placebo group in number of spinal cord anterior horn cells (cervical, thoracic or lumbar segment) [1, 3]","number of spinal cord anterior horn cells in the cervical segment [1, 3]","number of spinal cord anterior horn cells in the lumbar segment [1, 3]","number of spinal cord anterior horn cells in the thoracic segment [1, 3]","Rotarod test score ([2]; 70th day after birth, 5 mg/kg)","Rotarod test score ([2]; 75th day after birth, 5 mg/kg)","Rotarod test score ([2]; 80th day after birth, 5 mg/kg)","Rotarod test score ([2]; 85th day after birth, 5 mg/kg)","Rotarod test score ([2]; 90th day after birth, 5 mg/kg)","Rotarod test score ([2]; 95th day after birth, 5 mg/kg)","Rotarod test score ([2]; 100th day after birth, 5 mg/kg)","Rotarod test score ([2]; 105th day after birth, 5 mg/kg)",effect in rotarod test as compared to placebo group [2],"Rotarod test score ([2]; 110th day after birth, 5 mg/kg)","Rotarod test score ([2]; 115th day after birth, 5 mg/kg)","Rotarod test score ([2]; 120th day after birth, 5 mg/kg)",Rotarod test score ([2]; 130th day after birth),Rotarod test score ([2]; 135th day after birth),Rotarod test score ([2]; 140th day after birth),Rotarod test score ([2]; 125th day after birth),other results
"CC(C)(C)COc1ccc(-n2cc(C(=O)O)cn2)cc1C#N [compound (a), 1-[3-cyano-4-(2,2-dimethylpropoxy)phenyl]-1H-pyrazole-4-carboxylic acid]",no significant difference,3.3±3.1,3.7±3.3,1.6±2.1,0.0±0.0,0.0±0.0,0.0±0.0,0.0±0.0,0.0±0.0,0.0±0.0,0.0±0.0,0.0±0.0,significant effects,0.3±0.7,1.2±1.3,2.2±0.9,3.0 ± 0.0,3.0 ± 0.0,3.0 ± 0.0,,"difference to placebo group in number of spinal cord anterior horn cells (cervical, thoracic or lumbar segment) [1, 4]: no significant difference; number of spinal cord anterior horn cells in the cervical segment [1, 4]: 4.8±3.7; number of spinal cord anterior horn cells in the lumbar segment [1, 4]: 4.1±4.4; number of spinal cord anterior horn cells in the thoracic segment [1, 4]: 2.3±2.2; Rotarod test score ([2]; 125th day after birth, 5 mg/kg): 2.7±0.5; Rotarod test score ([2]; from the 130th day to 140th day after birth): 3.0±0.0"
"Cc1nc(-c2ccc(OCC(C)C)c(C#N)c2)sc1C(=O)O [compound (c), 2-[3-cyano-4-(2-methylpropoxy)phenyl]-4-methyl-5-thiazolecarboxylic acid]",no significant difference,5.2±4.3,4.1±3.8,1.6±1.7,0.0±0.0,0.0±0.0,0.0±0.0,0.0±0.0,0.0±0.0,0.0±0.0,0.0±0.0,0.0±0.0,significant effects,0.4±0.8,1.3±1.3,2.5±0.5,3.0 ± 0.0,3.0 ± 0.0,3.0 ± 0.0,3.0 ± 0.0,"Rotarod test score [2, 5]: 3.0±0.0"
"N#Cc1cc(-c2n[nH]c(-c3ccncc3)n2)ccn1 [compound (b), 4-(5-pyridin-4-yl-1H-[1,2,4]triazol-3-yl)pyridine-2-carbonitrile]",no significant difference,4.6±2.0,5.3±2.7,1.9±1.7,0.0±0.0,0.0±0.0,0.0±0.0,0.0±0.0,0.0±0.0,0.0±0.0,0.0±0.0,0.0±0.0,significant effects,0.5±0.7,1.3±1.1,2.5±0.5,3.0 ± 0.0,3.0 ± 0.0,3.0 ± 0.0,3.0 ± 0.0,"Rotarod test score [2, 5]: 3.0±0.0"
